Tested on: erythrocytes infected with 3D7 trophozoites
Assay type: cell-based, Plasmodium falciparum
Details: sheet Ratio; for Ratio of metabolite abundance, Exp1_1hr: Exp1, 1hr; for Ratio of metabolite abundance, Exp1_3hr: Exp1, 3hr; for Ratio of metabolite abundance, Exp1_6hr: Exp1, 6hr; for Ratio of metabolite abundance, Exp2_1hr: Exp2, 1hr; for Ratio of metabolite abundance, Exp2_3hr: Exp2, 3hr; for Ratio of metabolite abundance, Exp2_6hr: Exp2, 6hr; for Ratio of metabolite abundance, Exp3_1hr: Exp3, 1hr; for Ratio of metabolite abundance, Exp3_3hr: Exp3, 3hr; for Ratio of metabolite abundance, Exp3_6hr: Exp3, 6hr

| Structure (SMILES) | Ratio of metabolite abundance, Exp1_1hr | Ratio of metabolite abundance, Exp1_3hr | Ratio of metabolite abundance, Exp1_6hr | Ratio of metabolite abundance, Exp2_1hr | Ratio of metabolite abundance, Exp2_3hr | Ratio of metabolite abundance, Exp2_6hr | Ratio of metabolite abundance, Exp3_1hr | Ratio of metabolite abundance, Exp3_3hr | Ratio of metabolite abundance, Exp3_6hr |
| --- | --- | --- | --- | --- | --- | --- | --- | --- | --- |
| O=P(O)(O)OC[C@H]1OC(O)(CO)[C@@H](O)[C@@H]1O (stereo partly drawn) [Fructose-6-Phosphate] | 1.008 | 1.026 | 1.013 | 1.111 | 1.041 | 0.9386 | 1.073 | 1.052 | 0.8397 |
| Nc1nc2c(ncn2[C@@H]2O[C@H](COP(=O)(O)OP(=O)(O)O[C@H]3O[C@H](CO)[C@@H](O)[C@H](O)[C@@H]3O)[C@@H](O)[C@H]2O)c(=O)[nH]1 [GDP-mannose] | 1.172 | 0.7132 | 0.4189 | 0.9396 | 0.7145 | 0.4773 | 0.9382 | 0.7837 | 0.5338 |
| Nc1nc2c(ncn2[C@@H]2O[C@H](COP(=O)(O)OP(=O)(O)O)[C@@H](O)[C@H]2O)c(=O)[nH]1 [GDP] | 0.4319 | 0.3131 | 0.5082 | 0.6304 | 0.5095 | 0.5364 | 0.8846 | 0.5153 | 0.569 |
| Nc1nc2c(ncn2[C@@H]2O[C@H](COP(=O)(O)O)[C@@H](O)[C@H]2O)c(=O)[nH]1 [GMP] | 0.2584 | 0.2388 | 0.4652 | 0.6356 | 0.2451 | 0.4274 | 0.5874 | 0.5355 | 0.8077 |
| Nc1nc2c(ncn2[C@@H]2O[C@H](COP(=O)(O)OP(=O)(O)OP(=O)(O)O)[C@@H](O)[C@H]2O)c(=O)[nH]1 [GTP] | 0.6647 | 0.5629 | 0.5991 | 0.6384 | 0.6479 | 0.6462 | 0.7156 | 0.6328 | 0.6081 |
| O=P(O)(O)OC[C@H]1OC(O)[C@H](O)[C@@H](O)[C@@H]1O (stereo partly drawn) [Glucose-6-Phosphate] | 0.8219 | 0.7353 | 0.7494 | 0.9729 | 0.8323 | 0.7319 | 0.8489 | 0.791 | 0.6337 |
